Results: EP1067137B1, “Granules of alpha-L-aspartyl-L-phenylalnine methyl ester” (Ajinomoto Co., Inc., priority 1991, dated 1992)
Peptide text beside a SMILES is read from it.

How the values were obtained:
[1] = relative to sucrose (cane sugar); cited from earlier work
[2] = Dissolution time of α-APM granules in water; assay type: physicochemical; settings: 8 g of sample in 2 liters of water, 20 °C, 350 rpm
Method: The dissolution time of the α-APM granules thus obtained was measured by the method mentioned below, and the results obtained are shown in Table 1.
First, 2 liters of water were previously put in a 3-liter beaker and stirred with a magnetic stirrer.
The size of the stirrer to be used for the stirring was 70 mm x 15 mm φ and the rotation number was set to be 350 rpm with Whatman Dataplate 440. The temperature of the water was kept to be 20 ° C by the use of a hot plate. 8 g of a sample was put into the water under the determined condition, whereupon the time needed for completely dissolving it in the water was measured to be the dissolution time of the sample.

[3] = Original Powder before Granulation
[4] = granules, Grain Size 100 to 150 µm
[5] = granules, Grain Size 150 to 180 µm
[6] = granules, Grain Size 180 to 300 µm
[7] = granules, Grain Size 300 to 500 µm
[8] = granules, Grain Size 500 to 850 µm
[9] = granules, Grain Size 850 to 1400 µm

Compound | sweetness [1] | Dissolution Time [2, 3] [min] | Dissolution Time [2, 4] [min] | Dissolution Time [2, 5] [min] | Dissolution Time [2, 6] [min] | Dissolution Time [2, 7] [min] | Dissolution Time [2, 8] [min] | Dissolution Time [2, 9] [min]
COC(=O)[C@H](Cc1ccccc1)NC(=O)[C@@H](N)CC(=O)O [α-APM, α-L-aspartyl-L-phenylalanine methyl ester] (H-Asp-Phe-OMe) | about 200 times that of sucrose | – | – | – | – | – | – | –
COC(=O)[C@H](Cc1ccccc1)NC(=O)[C@@H](N)CC(=O)O [sample B, α-L-aspartyl-L-phenylalanine methyl ester] (H-Asp-Phe-OMe) | – | 15 | 10 | 7 | 9 | 17 | 24 | 35
COC(=O)[C@H](Cc1ccccc1)NC(=O)[C@@H](N)CC(=O)O [sample C, α-L-aspartyl-L-phenylalanine methyl ester] (H-Asp-Phe-OMe) | – | 60 | 36 | 20 | 12 | 19 | 27 | 38
COC(=O)[C@H](Cc1ccccc1)NC(=O)[C@@H](N)CC(=O)O [sample A, α-L-aspartyl-L-phenylalanine methyl ester] (H-Asp-Phe-OMe) | – | 30 | 15 | 8 | 11 | 18 | 25 | 38
